From patent US8034812B2, “Imidazopyridazine derivative having kinase inhibitory activity and pharmaceutical agent thereof” (Takeda Pharmaceutical Company Limited, priority 2006, dated 2011)

Experiments:
[1] = biological target: T1, PDGFRβ intracellular domain protein (Homo sapiens, UniProt P09619); experiment: Determination of platelet-derived growth factor receptor β (PDGFRβ) kinase inhibitory activity (AlphaScreen); format: biochemical
T1 construct: 125 ng/ml of PDGFRβ intracellular domain protein (UPSTATE); purchased UPSTATE
Description: (§1) A test compound dissolved in dimethyl sulfoxide (DMSO) was diluted with a buffer (50 mM Tris-HCl (pH 7.5), 5 mM MgCl2, 5 mM MnCl2, 2 mM dithiothreitol, 0.01% Tween-20). To this compound solution (5 μL) was added a buffer (10 μL) containing 125 ng/ml of PDGFRβ intracellular domain protein (UPSTATE) and 250 ng/mL of biotin labeled polypeptide biotinyl-poly-Glu:Tyr (4:1) (CIS bio International). At 5 min after mixing kinase enzyme and the compound and biotin labeled polypeptide, to the obtained mixture was added a buffer (10 μL) containing ATP (25 μM), the mixture was allowed to react at 25° C. for 30 min and the reaction was quenched with 25 μL of a stop solution (100 mM EDTA disodium salt, 62.5 mM HEPES buffer (pH 7.4), 250 mM NaCl, 0.1% bovine serum albumin, 10 μg/mL AlphaScreen assay streptavidin donor beads (Streptavidin Donor Beads: PerkinElmer), 10 μg/mL AlphaScreen assay anti-phosphotyrosine recognition antibody PT-66 binding acceptor beads (Anti-phosphotyrosine (P-Tyr-66) Acceptor beads: PerkinElmer)). The reaction solution was allowed to stand at 25° C. for 16 hrs, and the wells were counted using a plate reader Fusion™ (PerkinElmer). The kinase inhibitory rate (%) of the test compound was calculated by the following formula: Inhibitory rate(%)=(1−(count of test compound=blank)÷(control−blank))×100
(§2) The count of the solution reacted without addition of the compound was used as a “control”, and the count of the solution without the compound and ATP was used as a “blank”.

[2] = biological target: T2, PDGFRα intracellular domain protein (Homo sapiens, UniProt P16234); experiment: Determination of platelet-derived growth factor receptor α (PDGFRα) kinase inhibitory activity (AlphaScreen); format: biochemical
T2 construct: 125 ng/ml of PDGFRα intracellular domain protein (UPSTATE); purchased UPSTATE
Description: as §1, with “PDGFRα” for “PDGFRβ”, “beads:” for “Beads:”, “compound−blank)÷(control−blank))×100” for “compound=blank)÷(control−blank))×100”
as §2

[3] = tested on: Human umbilical vein-derived vascular endothelial cells (HUVEC); experiment: Vascular endothelial cell growth inhibitory test (VEGF-stimulated HUVEC, XTT); format: cell-based; settings: 120 h, 5 days of culture
Description: To be specific, HUVEC was suspended in a vascular endothelial cell medium containing the aforementioned 5% bovine fetal serum and plated on a 96 well flat bottom plate by 50 μL (3000 cells) each well. After culture overnight, various concentrations of the test substance and 120 ng/mL of vascular endothelial growth factor (VEGF) were dissolved in a vascular endothelial cell medium containing 5% bovine fetal serum and added to each well by 50 μL. After 5 days of culture, a XTT reagent (Wako Pure Chemical Industries, Ltd.) was added to each well by 10 μL, and the mixture was reacted in an incubator at 37° C., 5% carbon dioxide for 2-3 hr. The absorbance at 450 nm was measured by a microtiter plate reader and the cell growth inhibitory activity was determined.

[4] = biological target: T3, VEGFR2 intracellular domain protein (Homo sapiens, UniProt P35968); experiment: Determination of vascular endothelial growth factor receptor 2 (VEGFR2) kinase inhibitory activity (AlphaScreen); format: biochemical; settings: read-out: VEGFR2 kinase inhibitory rate
T3 construct: made in house; host or cells: SF-21 insect cells, recombinant baculovirus BAC-VEGFR2
Description: Human vascular endothelial growth factor receptor 2 (hereinafter to be referred to as VEGFR2) gene was cloned by PCR using cDNA Libraries Human Placenta (Clontech) as a template. The primer used for PCR was prepared from base sequence (Genbank Accession AF035121) information of VEGFR2 gene by adding a base sequence encoding flag peptide and a recognition sequence of the restriction enzyme to a base sequence (2671-4374 of Genbank Accession AF035121) encoding the VEGFR2 intracellular domain region, so that the protein contains an N-terminal Flag tag. The primer base sequence is shown below.
SF-21 cells were sown at 1×10^6 cells/mL to Sf-900II SFM medium (1 L, Invitrogen) containing 10% fetal bovine serum (trace), 50 mg/L Gentamicin (Invitrogen) and 0.1% Pluronic F-68 (Invitrogen), and shaking culture was performed using a 2 L volume Erlenmeyer flask at 27° C., 100 rpm. After culturing for 24 hrs, recombinant baculovirus BAC-VEGFR2 (13.4 mL) was added to the mixture, and the mixture was further cultured for 3 days. The culture medium was centrifuged at 2,000 rpm for 5 min to give virus-infected cells. The infected cells were washed with a phosphate buffered saline (Invitrogen), centrifuged under the same conditions, and the cells were preserved at −80° C. The cryopreserved cells were thawed in ice, suspended in buffer A (50 mM Tris buffer (30 mL, pH 7.4) containing 20% glycerol, 0.15 M NaCl) supplemented with Complete Protease Inhibitor (Boehringer), and ruptured 3 times with a Polytron homogenizer (Kinematica) at 20,000 rpm for 30 sec. The ruptured medium was clarified by centrifugation at 40,000 rpm for 30 min and filtered with a 0.45 μm filter. The filtrate was passed through a column packed with Anti-FLAG M2 Affinity Gel (4 mL, Sigma) at a flow rate of about 0.5 mL/min. The column was washed with buffer A, and eluted with buffer A containing 100 μg/mL of FLAG peptide. The eluate was concentrated with Vivaspin 20 (Vivascience) having a molecular weight cut off of 30K. The buffer of this concentrate was exchanged using NAP™ 25 column (Amersham Bioscience) equilibrated with buffer A. The fractions containing intracellular domain protein of VEGFR2 were collected, glycerol was added to the final concentration of 50% and cryopreserved at −80° C.
A test compound dissolved in dimethyl sulfoxide (DMSO) was diluted with a buffer (50 mM Tris-HCl (pH 7.5), 5 mM MgCl2, 5 mM MnCl2, 2 mM dithiothreitol, 0.01% Tween-20). To this compound solution (5 μL) was added a buffer (10 μL) containing 50 ng/mL of VEGFR2 intracellular domain protein and 250 ng/mL of biotin labeled polypeptide biotinyl-poly-Glu:Tyr (4:1) (CIS bio International). To the obtained mixture was added a buffer (10 μL) containing ATP (25 μM), the mixture was allowed to react at 25° C. for 5 min and the reaction was quenched with 25 μL of a stop solution (100 mM EDTA disodium salt, 62.5 mM HEPES buffer (pH 7.4), 250 mM NaCl, 0.1% bovine serum albumin, 10 μg/mL AlphaScreen assay streptavidin donor beads (Streptavidin Donor beads: PerkinElmer), 10 μg/mL AlphaScreen assay anti-phosphotyrosine recognition antibody PY-100 binding acceptor beads (Anti-phosphotyrosine (P-Tyr-100) Acceptor beads: PerkinElmer)). The reaction solution was allowed to stand at 25° C. for 16 hrs, and the wells were counted using a plate reader Fusion™ (PerkinElmer). The kinase inhibitory rate (%) of the test compound was calculated by the following formula: Inhibitory rate(%)=(1−(count of test compound−blank)÷(control−blank))×100

T1 sequence (P09619 554-1106 limits assumed): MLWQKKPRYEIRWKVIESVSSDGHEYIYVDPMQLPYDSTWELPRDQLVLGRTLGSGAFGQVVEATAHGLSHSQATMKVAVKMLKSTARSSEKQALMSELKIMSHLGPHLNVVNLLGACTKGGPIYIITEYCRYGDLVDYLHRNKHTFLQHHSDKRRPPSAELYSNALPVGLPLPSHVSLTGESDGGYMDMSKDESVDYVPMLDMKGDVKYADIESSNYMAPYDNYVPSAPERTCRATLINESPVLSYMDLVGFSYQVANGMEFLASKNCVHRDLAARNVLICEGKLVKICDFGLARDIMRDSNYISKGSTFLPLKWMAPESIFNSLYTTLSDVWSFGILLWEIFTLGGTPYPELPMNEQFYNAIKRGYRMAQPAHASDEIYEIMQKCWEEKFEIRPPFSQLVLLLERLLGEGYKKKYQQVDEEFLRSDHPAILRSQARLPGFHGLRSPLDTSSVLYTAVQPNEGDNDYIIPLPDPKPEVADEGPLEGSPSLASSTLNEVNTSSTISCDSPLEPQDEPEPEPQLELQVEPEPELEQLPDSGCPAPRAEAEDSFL
T3 sequence (P35968 786-1356 limits assumed): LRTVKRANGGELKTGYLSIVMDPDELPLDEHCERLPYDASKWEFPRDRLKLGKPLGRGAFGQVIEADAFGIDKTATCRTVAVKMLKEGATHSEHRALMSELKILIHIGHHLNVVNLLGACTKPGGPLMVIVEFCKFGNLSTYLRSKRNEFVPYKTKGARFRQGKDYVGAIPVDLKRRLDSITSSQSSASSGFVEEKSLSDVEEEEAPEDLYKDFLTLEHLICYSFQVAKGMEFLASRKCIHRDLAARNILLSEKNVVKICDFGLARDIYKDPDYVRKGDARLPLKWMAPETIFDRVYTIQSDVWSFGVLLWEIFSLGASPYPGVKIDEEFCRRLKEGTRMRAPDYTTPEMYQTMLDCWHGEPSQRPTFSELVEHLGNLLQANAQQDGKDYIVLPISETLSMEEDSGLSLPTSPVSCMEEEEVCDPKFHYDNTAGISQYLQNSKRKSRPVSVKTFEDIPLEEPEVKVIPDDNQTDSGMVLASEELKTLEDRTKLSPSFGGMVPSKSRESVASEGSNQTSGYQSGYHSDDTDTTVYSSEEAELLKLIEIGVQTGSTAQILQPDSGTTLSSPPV
T2 sequence (P16234 550-1089 limits assumed): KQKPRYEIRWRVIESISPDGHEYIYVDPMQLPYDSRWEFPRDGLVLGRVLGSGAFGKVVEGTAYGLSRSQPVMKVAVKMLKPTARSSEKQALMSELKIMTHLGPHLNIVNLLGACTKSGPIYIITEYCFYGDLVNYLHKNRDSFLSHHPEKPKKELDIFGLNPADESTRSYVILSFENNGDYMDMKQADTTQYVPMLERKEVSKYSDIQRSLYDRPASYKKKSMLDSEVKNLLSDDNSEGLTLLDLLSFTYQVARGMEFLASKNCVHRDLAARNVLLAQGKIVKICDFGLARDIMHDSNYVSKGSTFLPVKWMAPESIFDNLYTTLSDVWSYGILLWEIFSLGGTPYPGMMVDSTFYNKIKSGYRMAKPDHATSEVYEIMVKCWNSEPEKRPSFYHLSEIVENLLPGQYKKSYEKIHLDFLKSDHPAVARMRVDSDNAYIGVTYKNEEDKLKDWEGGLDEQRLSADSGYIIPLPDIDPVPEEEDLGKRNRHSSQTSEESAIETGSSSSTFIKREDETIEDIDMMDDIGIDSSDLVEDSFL

Row | SMILES | IC50 [1] [nM] | IC50 [2] [nM] | IC50 [3] [nM] | inhibition at 1 µM [4] [%]
1 | Cc1nn(C)cc1C(=O)Nc1cc(Oc2ccc3nc(NC(=O)C4CC4)cn3n2)ccc1F [Example 173, N-[5-({2-[(cyclopropylcarbonyl)amino]imidazo[1,2-b]pyridazin-6-yl}oxy)-2-fluorophenyl]-1,3-dimethyl-1H-pyrazole-4-carboxamide] | ≤ 500 | ≤ 500 | ≤ 500 | ≥ 90
2 | CCn1nccc1C(=O)Nc1cc(Oc2ccc3nc(NC(=O)C4CC4)cn3n2)ccc1F [Example 174, N-[5-({2-[(cyclopropylcarbonyl)amino]imidazo[1,2-b]pyridazin-6-yl}oxy)-2-fluorophenyl]-1-ethyl-1H-pyrazole-5-carboxamide] | ≤ 500 | ≤ 500 | ≤ 500 | ≥ 90
3 | COc1cc(C(=O)Nc2cc(Oc3ccc4nc(NC(=O)C5CC5)cn4n3)ccc2F)n(C)n1 [Example 180, N-[5-({2-[(cyclopropylcarbonyl)amino]imidazo[1,2-b]pyridazin-6-yl}oxy)-2-fluorophenyl]-3-methoxy-1-methyl-1H-pyrazole-5-carboxamide] | ≤ 500 | ≤ 500 | ≤ 500 | ≥ 90
4 | Cc1cccnc1C(=O)Nc1cccc(Oc2ccc3nc(NC(=O)C4CC4)cn3n2)c1 [Example 187, N-[3-({2-[(cyclopropylcarbonyl)amino]imidazo[1,2-b]pyridazin-6-yl}oxy)phenyl]-3-methylpyridine-2-carboxamide] | ≤ 500 | ≤ 500 | ≤ 500 | ≥ 90
5 | CCc1cc(C(=O)Nc2cc(Oc3ccc4nc(NC(=O)C5CC5)cn4n3)ccc2F)n(C)n1 [Example 208, N-[5-({2-[(cyclopropylcarbonyl)amino]imidazo[1,2-b]pyridazin-6-yl}oxy)-2-fluorophenyl]-3-ethyl-1-methyl-1H-pyrazole-5-carboxamide] | ≤ 500 | ≤ 500 | ≤ 500 | ≥ 90
6 | CC#CC(=O)Nc1cc(Oc2ccc3nc(NC(=O)C4CC4)cn3n2)ccc1C [Example 241, N-{6-[3-(but-2-ynoylamino)-4-methylphenoxy]imidazo[1,2-b]pyridazin-2-yl}cyclopropanecarboxamide] | ≤ 500 | ≤ 500 | ≤ 500 | ≥ 90
7 | Cc1cc(C(=O)Nc2cc(Oc3ccc4nc(NC(=O)C5CC5C)cn4n3)ccc2F)n(C)n1 (stereo not drawn) [Example 243, N-{2-fluoro-5-[(2-{[(2-methylcyclopropyl)carbonyl]amino}imidazo[1,2-b]pyridazin-6-yl)oxy]phenyl}-1,3-dimethyl-1H-pyrazole-5-carboxamide] | ≤ 500 | ≤ 500 | ≤ 500 | ≥ 90
8 | CCc1cc(C(=O)Nc2cc(Oc3ccc4nc(NC(=O)C5CC5)cn4n3)ccc2Cl)n(C)n1 [Example 247, N-[2-chloro-5-({2-[(cyclopropylcarbonyl)amino]imidazo[1,2-b]pyridazin-6-yl}oxy)phenyl]-3-ethyl-1-methyl-1H-pyrazole-5-carboxamide] | ≤ 500 | ≤ 500 | ≤ 500 | ≥ 90
9 | Cc1nc(C)c(C(=O)Nc2cc(Oc3ccc4nc(NC(=O)C5CC5)cn4n3)ccc2F)s1 [Example 267, N-[5-({2-[(cyclopropylcarbonyl)amino]imidazo[1,2-b]pyridazin-6-yl}oxy)-2-fluorophenyl]-2,4-dimethyl-1,3-thiazole-5-carboxamide] | ≤ 500 | ≤ 500 | ≤ 500 | ≥ 90
10 | Cn1nccc1C(=O)Nc1cc(Oc2ccc3nc(NC(=O)C4CC4)cn3n2)ccc1F [Example 287, N-[5-({2-[(cyclopropylcarbonyl)amino]imidazo[1,2-b]pyridazin-6-yl}oxy)-2-fluorophenyl]-1-methyl-1H-pyrazole-5-carboxamide] | ≤ 500 | ≤ 500 | ≤ 500 | ≥ 90
11 | Cc1nc(C)c(C(=O)Nc2cc(Oc3ccc4nc(NC(=O)C5CC5)cn4n3)ccc2F)o1 [Example 289, N-[5-({2-[(cyclopropylcarbonyl)amino]imidazo[1,2-b]pyridazin-6-yl}oxy)-2-fluorophenyl]-2,4-dimethyl-1,3-oxazole-5-carboxamide] | ≤ 500 | ≤ 500 | ≤ 500 | ≥ 90
12 | Cc1ccc(Oc2ccc3nc(NC(=O)C4CC4)cn3n2)cc1NC(=O)c1scnc1C [Example 298, N-[5-({2-[(cyclopropylcarbonyl)amino]imidazo[1,2-b]pyridazin-6-yl}oxy)-2-methylphenyl]-4-methyl-1,3-thiazole-5-carboxamide] | ≤ 500 | ≤ 500 | ≤ 500 | ≥ 90
